PubChem BioAssay AID1918940 (Molecular Pharmacology Branch, DTP, NCI, 2023)

System: NCI-H211 complex spheroid viability
Experiment: Anticancer human tumor NCI-H211 cell line growth inhibition [LSD1];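 further: luminescent viability read after seven days of drug exposure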;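 on viability, T/C: 100% = DMSO vehicle control viability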
Conditions: for IC50: curve of first compound; for viability, T/C: stronger effect = lower value; active means viability on the fitted dose curve at most 10% of control; inactive means the rest
Procedure, shortened: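 Drug combinations with the LSD1 inhibitor iadademstat tested on tumor cells co-cultured as spheroids with endothelial cells and mesenchymal stem cells. Concentrations descended in half-log increments from clinical Cmax or 10 microM.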

[1] = second compound 0.1 µM, first compound 0.0316 µM
[2] = second compound 0.1 µM, first compound 0.1 µM
[3] = second compound 0.1 µM, first compound 0.316 µM
[4] = second compound 0.1 µM, first compound 1 µM
[5] = second compound 0.1 µM, first compound 3.16 µM
[6] = second compound 0.1 µM, first compound 10 µM
[7] = second compound 0.316 µM, first compound 0.0316 µM
[8] = second compound 0.316 µM, first compound 0.1 µM
[9] = second compound 0.316 µM, first compound 0.316 µM
[10] = second compound 0.316 µM, first compound 1 µM
[11] = second compound 0.316 µM, first compound 3.16 µM
[12] = second compound 0.316 µM, first compound 10 µM
[13] = second compound 1 µM, first compound 0.0316 µM
[14] = second compound 1 µM, first compound 0.1 µM
[15] = second compound 1 µM, first compound 0.316 µM
[16] = second compound 1 µM, first compound 1 µM
[17] = second compound 1 µM, first compound 3.16 µM
[18] = second compound 1 µM, first compound 10 µM
[19] = second compound 3.16 µM, first compound 0.0316 µM
[20] = second compound 3.16 µM, first compound 0.1 µM
[21] = second compound 3.16 µM, first compound 0.316 µM
[22] = second compound 3.16 µM, first compound 1 µM
[23] = second compound 3.16 µM, first compound 3.16 µM
[24] = second compound 3.16 µM, first compound 10 µM
[25] = second compound 10 µM, first compound 0.0316 µM
[26] = second compound 10 µM, first compound 0.1 µM
[27] = second compound 10 µM, first compound 0.316 µM
[28] = second compound 10 µM, first compound 1 µM
[29] = second compound 10 µM, first compound 3.16 µM
[30] = second compound 10 µM, first compound 10 µM
[31] = second compound 0.1 µM, first compound 0.00949 µM
[32] = second compound 0.1 µM, first compound 0.03 µM
[33] = second compound 0.1 µM, first compound 0.0949 µM
[34] = second compound 0.1 µM, first compound 0.3 µM
[35] = second compound 0.316 µM, first compound 0.00949 µM
[36] = second compound 0.316 µM, first compound 0.03 µM
[37] = second compound 0.316 µM, first compound 0.0949 µM
[38] = second compound 0.316 µM, first compound 0.3 µM
[39] = second compound 1 µM, first compound 0.00949 µM
[40] = second compound 1 µM, first compound 0.03 µM
[41] = second compound 1 µM, first compound 0.0949 µM
[42] = second compound 1 µM, first compound 0.3 µM
[43] = second compound 3.16 µM, first compound 0.00949 µM
[44] = second compound 3.16 µM, first compound 0.03 µM
[45] = second compound 3.16 µM, first compound 0.0949 µM
[46] = second compound 3.16 µM, first compound 0.3 µM
[47] = second compound 10 µM, first compound 0.00949 µM
[48] = second compound 10 µM, first compound 0.03 µM
[49] = second compound 10 µM, first compound 0.0949 µM
[50] = second compound 10 µM, first compound 0.3 µM

CC1(C)CCC(CN2CCN(c3ccc(C(=O)NS(=O)(=O)c4ccc(NCC5CCOCC5)c([N+](=O)[O-])c4)c(Oc4cnc5[nH]ccc5c4)c3)CC2)=C(c2ccc(Cl)cc2)C1 + NC1CC1c1ccc(-c2cccc(O)c2)cc1
< 31.6 nM: IC50 (second compound 0.1 µM) | IC50 (second compound 0.316 µM) | IC50 (second compound 1 µM) | IC50 (second compound 3.16 µM) | IC50 (second compound 10 µM)
inactive: viability, T/C [1] 43.8% | viability, T/C [2] 38.7% | viability, T/C [3] 35% | viability, T/C [4] 53.4% | viability, T/C [5] 100% | viability, T/C [6] 52.7% | viability, T/C [7] 36.8% | viability, T/C [8] 37.9% | viability, T/C [9] 37.2% | viability, T/C [10] 53.2% | viability, T/C [11] 100% | viability, T/C [12] 65.1% | viability, T/C [13] 27.5% | viability, T/C [14] 47.8% | viability, T/C [15] 26.1% | viability, T/C [16] 44.5% | viability, T/C [17] 90.8% | viability, T/C [18] 55% | viability, T/C [19] 32.1% | viability, T/C [20] 28.1% | viability, T/C [21] 29.8% | viability, T/C [22] 30.8% | viability, T/C [23] 58.9% | viability, T/C [24] 46.2% | viability, T/C [25] 32.7% | viability, T/C [26] 26.2% | viability, T/C [27] 21.2% | viability, T/C [28] 28.2% | viability, T/C [29] 30.5% | viability, T/C [30] 21%

CC1COCCN1c1cc(C2(S(C)(=N)=O)CC2)nc(-c2ccnc3[nH]ccc23)n1 (stereo not given) + NC1CC1c1ccc(-c2cccc(O)c2)cc1
381 nM: IC50 (second compound 1 µM)
264 nM: IC50 (second compound 0.316 µM)
active: viability, T/C [5] 4.67% | viability, T/C [6] 2.73% | viability, T/C [11] 5.02% | viability, T/C [12] 2.53% | viability, T/C [17] 5.48% | viability, T/C [18] 3.11% | viability, T/C [23] 5.24% | viability, T/C [24] 3% | viability, T/C [29] 5.1% | viability, T/C [30] 3.28%
inactive: viability, T/C [1] 89.3% | viability, T/C [2] 68.7% | viability, T/C [3] 48.5% | viability, T/C [4] 19.1% | viability, T/C [7] 85.4% | viability, T/C [8] 72.9% | viability, T/C [9] 46.9% | viability, T/C [10] 13.5% | viability, T/C [13] 74.2% | viability, T/C [14] 64.3% | viability, T/C [15] 57.5% | viability, T/C [16] 15% | viability, T/C [19] 69.6% | viability, T/C [20] 73.2% | viability, T/C [21] 48.8% | viability, T/C [22] 16.3% | viability, T/C [25] 65.7% | viability, T/C [26] 51.6% | viability, T/C [27] 33.1% | viability, T/C [28] 14.5%
317 nM: IC50 (second compound 3.16 µM)
115 nM: IC50 (second compound 10 µM)
258 nM: IC50 (second compound 0.1 µM)

CCN(c1cc(-c2ccc(CN3CCOCC3)cc2)cc(C(=O)NCc2c(C)cc(C)[nH]c2=O)c1C)C1CCOCC1 + NC1CC1c1ccc(-c2cccc(O)c2)cc1
139 nM: IC50 (second compound 10 µM)
205 nM: IC50 (second compound 0.1 µM)
127 nM: IC50 (second compound 3.16 µM)
inactive: viability, T/C [31] 74.4% | viability, T/C [32] 62.2% | viability, T/C [33] 61.3% | viability, T/C [34] 43.7% | viability, T/C (second compound 0.1 µM, first compound 0.949 µM) 41% | viability, T/C (second compound 0.1 µM, first compound 3 µM) 40.9% | viability, T/C [35] 84% | viability, T/C [36] 67.3% | viability, T/C [37] 42.7% | viability, T/C [38] 48.8% | viability, T/C (second compound 0.316 µM, first compound 0.949 µM) 46.5% | viability, T/C (second compound 0.316 µM, first compound 3 µM) 36.3% | viability, T/C [39] 83.4% | viability, T/C [40] 48.5% | viability, T/C [41] 65.8% | viability, T/C [42] 38.1% | viability, T/C (second compound 1 µM, first compound 0.949 µM) 38.4% | viability, T/C (second compound 1 µM, first compound 3 µM) 30.3% | viability, T/C [43] 79.3% | viability, T/C [44] 58.7% | viability, T/C [45] 50.5% | viability, T/C [46] 46.3% | viability, T/C (second compound 3.16 µM, first compound 0.949 µM) 38.8% | viability, T/C (second compound 3.16 µM, first compound 3 µM) 27.4% | viability, T/C [47] 70.3% | viability, T/C [48] 58.6% | viability, T/C [49] 46.6% | viability, T/C [50] 51.7% | viability, T/C (second compound 10 µM, first compound 0.949 µM) 40.8% | viability, T/C (second compound 10 µM, first compound 3 µM) 32.1%
69.4 nM: IC50 (second compound 0.316 µM)
114 nM: IC50 (second compound 1 µM)

Cn1ncnc1C1c2n[nH]c(=O)c3cc(F)cc(c23)NC1c1ccc(F)cc1 (stereo not given) + NC1CC1c1ccc(-c2cccc(O)c2)cc1
1.02 nM: IC50 (second compound 10 µM)
1.66 nM: IC50 (second compound 0.316 µM)
inactive: viability, T/C (second compound 0.1 µM, first compound 0.000316 µM) 64.8% | viability, T/C (second compound 0.1 µM, first compound 0.001 µM) 65.8% | viability, T/C (second compound 0.1 µM, first compound 0.00316 µM) 36.7% | viability, T/C (second compound 0.316 µM, first compound 0.000316 µM) 79.3% | viability, T/C (second compound 0.316 µM, first compound 0.001 µM) 66.8% | viability, T/C (second compound 0.316 µM, first compound 0.00316 µM) 28.5% | viability, T/C (second compound 1 µM, first compound 0.000316 µM) 51.5% | viability, T/C (second compound 1 µM, first compound 0.001 µM) 51.6% | viability, T/C (second compound 1 µM, first compound 0.00316 µM) 23.6% | viability, T/C (second compound 3.16 µM, first compound 0.000316 µM) 71.6% | viability, T/C (second compound 3.16 µM, first compound 0.001 µM) 50.8% | viability, T/C (second compound 3.16 µM, first compound 0.00316 µM) 26% | viability, T/C (second compound 10 µM, first compound 0.000316 µM) 48.5% | viability, T/C (second compound 10 µM, first compound 0.001 µM) 52.2% | viability, T/C (second compound 10 µM, first compound 0.00316 µM) 19.9%
1.85 nM: IC50 (second compound 0.1 µM)
active: viability, T/C (second compound 0.1 µM, first compound 0.01 µM) 6.78% | viability, T/C [1] 5.16% | viability, T/C [2] 5.28% | viability, T/C (second compound 0.316 µM, first compound 0.01 µM) 6.02% | viability, T/C [7] 5.46% | viability, T/C [8] 4.84% | viability, T/C (second compound 1 µM, first compound 0.01 µM) 6.16% | viability, T/C [13] 4.68% | viability, T/C [14] 4.9% | viability, T/C (second compound 3.16 µM, first compound 0.01 µM) 6.88% | viability, T/C [19] 5.03% | viability, T/C [20] 5.16% | viability, T/C (second compound 10 µM, first compound 0.01 µM) 6.25% | viability, T/C [25] 5.22% | viability, T/C [26] 4.95%
1.05 nM: IC50 (second compound 1 µM)
1.08 nM: IC50 (second compound 3.16 µM)

Nc1ncn(C2CC(O)C(CO)S2)c(=O)n1 (stereo not given) + NC1CC1c1ccc(-c2cccc(O)c2)cc1
inactive: viability, T/C (second compound 0.1 µM, first compound 0.000949 µM) 35.2% | viability, T/C (second compound 0.1 µM, first compound 0.003 µM) 20.8% | viability, T/C (second compound 0.316 µM, first compound 0.000949 µM) 35.8% | viability, T/C (second compound 0.316 µM, first compound 0.003 µM) 16.6% | viability, T/C (second compound 1 µM, first compound 0.000949 µM) 40.5% | viability, T/C (second compound 1 µM, first compound 0.003 µM) 17.2% | viability, T/C (second compound 3.16 µM, first compound 0.000949 µM) 31.3% | viability, T/C (second compound 3.16 µM, first compound 0.003 µM) 15.9% | viability, T/C (second compound 10 µM, first compound 0.000949 µM) 32.3% | viability, T/C (second compound 10 µM, first compound 0.003 µM) 16.6%
< 0.949 nM: IC50 (second compound 0.1 µM) | IC50 (second compound 0.316 µM) | IC50 (second compound 1 µM) | IC50 (second compound 3.16 µM) | IC50 (second compound 10 µM)
active: viability, T/C [31] 9.36% | viability, T/C [32] 4.53% | viability, T/C [33] 4.25% | viability, T/C [34] 5.78% | viability, T/C [35] 8.03% | viability, T/C [36] 5.12% | viability, T/C [37] 5.19% | viability, T/C [38] 5.71% | viability, T/C [39] 8.75% | viability, T/C [40] 4.16% | viability, T/C [41] 4.46% | viability, T/C [42] 6.59% | viability, T/C [43] 8.59% | viability, T/C [44] 5.64% | viability, T/C [45] 5.95% | viability, T/C [46] 4.49% | viability, T/C [47] 8.49% | viability, T/C [48] 6.66% | viability, T/C [49] 5.5% | viability, T/C [50] 6.65%
